Several values for one entry are separate records, joined by “and”; a condition that tells them apart may be missing. Identical values can stand only once.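 Exposure lasted 48 hours, with cells grown in 96-well plates and compounds tested at five concentrations. GI50: concentration for 50% inhibition of growth. The concentration for full growth arrest is given as TGI.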

Test systems include SK-MEL-28 melanoma; ACHN renal; NCI-H522 lung; SF-295 CNS; OVCAR-5 ovarian; MDA-MB-231 breast; SK-MEL-2 melanoma; SR leukemia; SNB-75 CNS; A549 NSCLC.
Common to all, as to experiment: growth of human tumour cells (NCI), 48 h

Turning to `COc1nc(N)nc2nc[nH]c12`, the GI50 with SK-MEL-28 melanoma was over 1000 µM; with ACHN renal, 454 µM and 381 µM; in the experiment on NCI-H522 lung, 554 µM; in the experiment with SF-295 CNS, over 881 µM; with OVCAR-5 ovarian, 401 µM and > 728 µM; with MDA-MB-231 breast, 641 µM. Also, the GI50 with SK-MEL-2 melanoma was over 800 µM; in the experiment on SR leukemia, > 800 µM and 249 µM; in the experiment on SNB-75 CNS, 275 µM and 263 µM; with A549 NSCLC, > 800 µM and 713 µM. For the same compound, the TGI in the experiment with SK-MEL-28 melanoma was over 1000 µM; with ACHN renal it was 500 µM and 800 µM and > 1000 µM; in the experiment with NCI-H522 lung, 500 µM and 800 µM and > 917 µM; with SF-295 CNS it was over 1000 µM; with OVCAR-5 ovarian, 491 µM and 800 µM and > 1000 µM; with MDA-MB-231 breast, 500 µM and > 1000 µM. Besides, the TGI with SK-MEL-2 melanoma is 500 µM and > 800 µM and > 853 µM; with SR leukemia it was 500 µM and > 800 µM and > 849 µM; in the experiment with SNB-75 CNS, 342 µM and 679 µM and > 929 µM; with A549 NSCLC, over 1000 µM.

For the compound `Cn1cc(-c2ccc3c(c2)ncn3-c2cc(NS(=O)(=O)C3CC3)cc(-c3ccc(F)cc3F)c2)cn1`, the GI50 in the experiment with SK-MEL-28 melanoma is 20.9 µM; in the experiment with ACHN renal it was 5 µM; in the experiment with NCI-H522 lung it was 10.6 µM; with SF-295 CNS, 8.18 µM; in the experiment with OVCAR-5 ovarian, 14 µM; in the experiment with MDA-MB-231 breast, 5.61 µM. Besides, the GI50 in the experiment with SK-MEL-2 melanoma was 25.7 µM; in the experiment with SR leukemia, 6 µM; in the experiment on SNB-75 CNS, 0.59 µM; in the experiment with A549 NSCLC, 9.01 µM. Also, the TGI was over 100 µM in the experiment with SK-MEL-28 melanoma; 66.9 µM with ACHN renal; 64.9 µM in the experiment on NCI-H522 lung; 37.2 µM in the experiment on SF-295 CNS; over 100 µM in the experiment with OVCAR-5 ovarian; over 100 µM with MDA-MB-231 breast. For the same compound, the TGI in the experiment with SK-MEL-2 melanoma was 61.5 µM; with SR leukemia it was over 100 µM; in the experiment with SNB-75 CNS, 8.28 µM; in the experiment on A549 NSCLC it was over 100 µM.

Consider `N=C(N)SCc1ccc(Cl)c2ccccc12` (tested in a mixture with another compound), for which the TGI in the experiment on SK-MEL-28 melanoma is 28.1 µM and 25.6 µM; with ACHN renal, 25.1 µM and 25.8 µM; in the experiment with NCI-H522 lung, 18.7 µM and 23.9 µM; in the experiment with SF-295 CNS, 24.9 µM and 23.7 µM; in the experiment on OVCAR-5 ovarian it was 26.8 µM and 27.6 µM; with MDA-MB-231 breast it was 21.9 µM and 27.8 µM. In addition, the TGI is 21.7 µM and 25.1 µM with SK-MEL-2 melanoma; 22.8 µM and 8.03 µM in the experiment with SR leukemia; 23.1 µM and 19.2 µM in the experiment on SNB-75 CNS; 31.3 µM and 35.5 µM in the experiment with A549 NSCLC.

As to `N#C[Se]CCN1C(=O)c2ccccc2C1=O`, the GI50 with SK-MEL-28 melanoma is 1.8 µM; with ACHN renal, 3.33 µM; with NCI-H522 lung it was 4.72 µM; in the experiment on SF-295 CNS, 1.65 µM; in the experiment with OVCAR-5 ovarian, 2.24 µM; in the experiment with MDA-MB-231 breast it was 2.74 µM. In addition, the GI50 is 3.71 µM in the experiment with SK-MEL-2 melanoma, 3.21 µM with SR leukemia, 2.09 µM with SNB-75 CNS and 2.55 µM with A549 NSCLC. For the same compound, the TGI in the experiment with SK-MEL-28 melanoma stood at 4.99 µM; with ACHN renal, 11.9 µM; in the experiment with NCI-H522 lung it was 21.9 µM; in the experiment with SF-295 CNS, 3.7 µM; with OVCAR-5 ovarian, 9.38 µM; with MDA-MB-231 breast, 9.65 µM. In addition, the TGI stood at 19.1 µM in the experiment on SK-MEL-2 melanoma, 23.9 µM with SR leukemia, 5.56 µM in the experiment on SNB-75 CNS and 8.93 µM in the experiment with A549 NSCLC.

For `COc1cc2c3c(n(CCCN)c(=O)c2cc1OC)-c1ccc(N)cc1C3=O`, the GI50 with SK-MEL-28 melanoma was 2.16 µM; in the experiment on ACHN renal, 5.9 µM; with NCI-H522 lung, 0.78 µM; in the experiment with SF-295 CNS, 3.75 µM; in the experiment on OVCAR-5 ovarian, 7.87 µM; in the experiment on MDA-MB-231 breast, 3.09 µM. For the same compound, the GI50 with SK-MEL-2 melanoma was 7.77 µM; in the experiment with SR leukemia, 0.152 µM; in the experiment on SNB-75 CNS, 1.75 µM; with A549 NSCLC, 12.9 µM. For the same compound, the TGI in the experiment on SK-MEL-28 melanoma is 14.7 µM; in the experiment on ACHN renal, 37.8 µM; with NCI-H522 lung, 16.7 µM; with SF-295 CNS, 37.3 µM; in the experiment with OVCAR-5 ovarian, over 47.9 µM; with MDA-MB-231 breast it was 21.2 µM. In addition, the TGI with SK-MEL-2 melanoma stood at 29.8 µM; with SR leukemia, 1.45 µM; in the experiment with SNB-75 CNS, 12.3 µM; with A549 NSCLC, 44.3 µM.

Turning to `C=CCN(CC=C)Cc1c[nH]c2ccccc12`, the GI50 was over 100 µM in the experiment on SK-MEL-28 melanoma; 36.3 µM in the experiment on ACHN renal; 14.9 µM in the experiment on NCI-H522 lung; 21 µM in the experiment with SF-295 CNS; 17 µM with OVCAR-5 ovarian; 23.4 µM in the experiment with MDA-MB-231 breast. Further, the GI50 with SK-MEL-2 melanoma was 15.3 µM; with SR leukemia it was 30.3 µM; in the experiment with SNB-75 CNS, over 100 µM; in the experiment with A549 NSCLC it was 31.5 µM. Besides, the TGI in the experiment with SK-MEL-28 melanoma was over 100 µM; in the experiment with ACHN renal, over 100 µM; in the experiment on NCI-H522 lung, 33.8 µM; in the experiment on SF-295 CNS, over 100 µM; with OVCAR-5 ovarian, 34.6 µM; in the experiment on MDA-MB-231 breast it was 54.8 µM. Also, the TGI in the experiment with SK-MEL-2 melanoma is 38.3 µM; in the experiment on SR leukemia, over 100 µM; in the experiment with SNB-75 CNS, over 100 µM; with A549 NSCLC, over 100 µM.

As to `CN(c1ccccc1)c1c2ccccc2nc2[nH]c3ccccc3c12`, the GI50 with SK-MEL-28 melanoma is 2.08 µM; with ACHN renal, 1.43 µM; in the experiment on NCI-H522 lung, 3.56 µM; in the experiment with SF-295 CNS, 2.44 µM; in the experiment on OVCAR-5 ovarian it was 12.6 µM; in the experiment with MDA-MB-231 breast it was 1.93 µM. Moreover, the GI50 is 7.71 µM in the experiment with SK-MEL-2 melanoma, 0.336 µM in the experiment with SR leukemia, 3.04 µM in the experiment with SNB-75 CNS and 0.943 µM with A549 NSCLC. Further, the TGI in the experiment on SK-MEL-28 melanoma turned out to be 7.42 µM; in the experiment on ACHN renal it was 3.2 µM; with NCI-H522 lung, 14.9 µM; in the experiment with SF-295 CNS, 5.76 µM; in the experiment on OVCAR-5 ovarian it was 39.5 µM; in the experiment with MDA-MB-231 breast, 4.63 µM. The TGI in the experiment with SR leukemia is over 100 µM; with SNB-75 CNS, 15.1 µM; in the experiment with A549 NSCLC, 3.27 µM.

For the origin of these results see PubChem BioAssay (NCI).
